Test results reported in article PMC6525171, “15-deoxy-Δ^12,14-Prostaglandin J2 inhibits human soluble epoxide hydrolase by a dual orthosteric and allosteric mechanism” (Communications Biology, 2019).
Changes are numbered by the printed parent chain.

Tests used:
Assay type in all cases: biochemical
[1] = biological target: T1, human soluble epoxide hydrolase (hsEH CTD) (Homo sapiens, UniProt P34913, C423S); test: HPLC, UV and CD of purified covalent adduct; PHOME activity of adduct vs apoprotein
T1 construct: gene EPHX2; C-terminal domain, T230-M555
T1 sequence (P34913 230-555 C423S): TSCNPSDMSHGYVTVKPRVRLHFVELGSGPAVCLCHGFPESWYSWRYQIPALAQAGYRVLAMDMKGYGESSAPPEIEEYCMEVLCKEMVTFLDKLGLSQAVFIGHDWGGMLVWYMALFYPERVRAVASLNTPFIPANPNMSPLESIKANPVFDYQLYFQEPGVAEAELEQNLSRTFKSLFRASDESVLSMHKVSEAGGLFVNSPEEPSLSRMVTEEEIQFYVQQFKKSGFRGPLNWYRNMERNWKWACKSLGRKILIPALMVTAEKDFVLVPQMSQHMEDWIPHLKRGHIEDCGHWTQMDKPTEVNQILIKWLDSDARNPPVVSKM

[2] = biological target: T2, human soluble epoxide hydrolase (hsEH CTD) (Homo sapiens, UniProt P34913, C423S/C522S); test: PHOME spectrofluorimetric assay, Ki by Cheng-Prusoff
T2 construct: gene EPHX2; C-terminal domain, T230-M555
T2 sequence (P34913 230-555 C423S/C522S): T1 sequence (P34913 230-555 C423S) with C293S

[3] = biological target: T3, human soluble epoxide hydrolase (hsEH CTD) (Homo sapiens, UniProt P34913); test: X-ray crystal structure ([…] Å, non-covalent complex), STD-NMR; ESI-MS and LC-MS/MS of covalent adducts; Ki from PHOME fluorescence assay
T3 construct: gene EPHX2; C-terminal domain, T230-M555
T3 sequence (P34913 230-555): T1 sequence (P34913 230-555 C423S) with S194C

[4] = biological target: T4, human soluble epoxide hydrolase (hsEH CTD) (Homo sapiens, UniProt P34913, C522S); test: HPLC, UV and CD of purified covalent adduct; PHOME activity of adduct vs apoprotein
T4 construct: gene EPHX2; C-terminal domain, T230-M555
T4 sequence (P34913 230-555 C522S): T1 sequence (P34913 230-555 C423S) with S194C, C293S

CCCCC/C=C/C=C1/C(=O)C=C[C@@H]1C/C=C/CCCC(=O)O [15d-PGJ2]
HPLC, UV and CD of purified covalent adduct; PHOME activity of adduct vs apoprot [1]: with the single modification of C423S and C522S mutants inhibiting the enzyme to a lesser extent
Ki [2]: 8.56 µM
Ki [3]: 13 µM
HPLC, UV and CD of purified covalent adduct; PHOME activity of adduct vs apoprot [4]: with the single modification of C423S and C522S mutants inhibiting the enzyme to a lesser extent
